Reference: publication PMC9207806 (ACS Chemical Biology, 2022)
Like-named read-outs stand apart in the source and are kept apart here.

Key:
[1] = molecular target: T1, VACV D10 (Vaccinia virus, UniProt P04312); format: biochemical
T1 construct: made in house

[2] = molecular target: T2, VACV D9 decapping enzyme (Vaccinia virus, UniProt P04311); experiment: biochemical; format: biochemical
T2 construct: His-tag (C); made in house
Description: (§1) Point fluorescence measurements were performed using the BioTek Synergy H1 microplate reader. Before each measurement, the reaction buffer was degassed. Experiments were performed in the Greiner 96-well, black, non-binding plates at 30 °C. Before the measurement, the plate was preincubated for 15 min at 30 °C with mixing (300 rpm). The point fluorescence was registered with 1 min interval and detection at 345 nm excitation wavelength and 378 nm emission wavelength.
Experiments to determine IC50 parameters were performed as point fluorescence measurements. Each well contained an appropriate buffer (10 mM MOPS·HCl, pH 7.0, 100 mM KOAc, containing 2 mM MgCl2, 0.3 mM MnCl2, and 2 mM DTT) with addition of 0.1% BSA, a fluorescent substrate (3 μM of probe 1b), an inhibitor (in half-logarithmic dilution, cinh ∈ 0, 100 μM), and an enzyme (5 nM of D9) to a final volume of 150 μL. To determine the IC50 values, a three parameter dose–response formula with standard hill slope from GraphPad Prism software was fitted [drawing 3] where V/V0 is the relative initial rate of the reaction, Imin and Imax are bottom and top plateaus, and Cinh is the concentration of the inhibitor.

[3] = molecular target: T3, D9 (Vaccinia virus, UniProt P04311); conditions: cited from earlier work
T3 construct: His-tag (C); made in house

[4] = molecular target: T3, D9; experiment: Time-dependent fluorescence changes of probes 1a-1e on D9 cleavage; format: biochemical; conditions: probe 100 nM, D9 50 nM, pH 7.5 (Figure S1)
Description: Fluorescence emission spectra were recorded using the Agilent Cary Eclipse fluorescence spectrophotometer equipped with the xenon lamp under temperature-controlled conditions. All experiments were performed at 37 °C in the Hellma quartz cuvette (10 × 4 mm) with a sample volume 1000 μL in 10 mM Tris·HCl (pH 7.5), 100 mM KOAc, 2 mM MgCl2, 0.5 mM MnCl2, and 2 mM DTT. Before each measurement, the buffer was degassed. Emission spectra were registered for all excitation maxima (detailed wavelengths for each probe: 1a—exc. 490/em. 512 nm; 1b, 1d, and 1e—345/378 nm; and 1c—420/489 nm).

[5] = molecular target: T4, human Dcp1/2 complex (Homo sapiens, UniProt Q8IU60); format: biochemical; conditions: 11 nM hDcp1/2, inhibitor up to 100 μM, 37 °C, 1 h
T4 construct: His-tag; made in house; host or cells: E. coli BL21(DE3) RIL

[6] = molecular target: T3, D9; format: biochemical; conditions: 30 μM compound, 25 nM D9, 30 °C, 2 h, RP HPLC
[7] = test system: C[n+]1cn([C@@H]2O[C@H](COP(=O)(O)OP(=O)([O-])OP(=O)(O)CCc3cn(CCOCCOCCNC(=O)Cc4ccc5ccc6cccc7ccc4c5c67)nn3)[C@@H](O)[C@H]2O)c2nc(N)[nH]c(=O)c21; experiment: Michaelis-Menten kinetics of probe 1b hydrolysis by D9; format: biochemical, Vaccinia virus; conditions: other: probe 0-15 μM, 5 nM D9; means of three experiments ± SEM; pH 7.0; 30.0 °C
Description: as §1
To determine the kinetic parameters of enzymatic hydrolysis of probe 1b by D9 enzyme, point fluorescence measurements were performed. Each well of the plate contained an appropriate buffer (10 mM MOPS·HCl, pH 7.0, 100 mM KOAc, containing 2 mM MgCl2, 0.3 mM MnCl2, and 2 mM DTT) with addition of 0.1% BSA, a substrate (probe 1b at a concentration range 0–15 μM) and an enzyme (5 nM of D9) to a final volume of 150 μL. The measurement was carried out on until full saturation, which allowed us to convert the initial rates from au/min to mol/min/mg. The initial rates were calculated by fitting a linear curve to the first 10 points (10 min) of the hydrolysis reaction. […]

[8] = test system: SpDcp1/Dcp2; conditions: cited from earlier work
[9] = read-out: IC50, nucleotide-derived compounds, FLINT HTS assay, in-house nucleotide library (Table S1, Figure 3), 3 μM probe 1b, 5 nM D9, 30 °C, means of 3 independent experiments ± SEM
[10] = in-house nucleotide library (Table S1, Figure 3), 3 μM probe 1b, 5 nM D9, 30 °C, means of 3 independent experiments ± SEM, read-out: IC50, nucleotide-derived compounds, FLINT HTS assay

Compound: C[n+]1cn([C@@H]2O[C@H](COP(=O)(O)OP(=O)([O-])OP(=O)(O)CP(=O)(O)O)[C@@H](O)[C@H]2O)c2nc(N)nc(O)c21 [m7GpppCH2p]
- inhibitory activity toward D10 [1]: weak inhibitory activity
- IC50 [2, 9]: ~0.08 µM

Compound: C[n+]1cn([C@@H]2O[C@H](COP(=O)([O-])OP(=O)(O)O)[C@@H](O)[C@H]2O)c2nc(N)[nH]c(=O)c21 [m7GDP]
- IC50 [2]: 14.2 ± 2.4 µM
- D9 inhibition (literature) [3]: less potent D9 inhibitors

Compound: C[n+]1cn([C@@H]2O[C@H](COP(=O)(O)OP(=O)([O-])OP(=O)(O)CCc3cn(CCOCCOCCNC(=O)Cc4ccc5ccc6cccc7ccc4c5c67)nn3)[C@@H](O)[C@H]2O)c2nc(N)[nH]c(=O)c21 [Compound 1b, m^7GTP-Py]
- time to complete hydrolysis by D9 [4]: ~ 40 min

Compound: CC[C@H](CO)Nc1nc(NCc2ccccc2)c2ncn(C(C)C)c2n1 [seliciclib, reference compound]
- inhibitory activity toward Dcp1/2 [5]: very low inhibitory activity
- inhibitory activity toward D10 [1]: very low inhibitory activity

Compound: Cn1c[n+]([C@@H]2O[C@H](COP(=O)([O-])OP(=O)(O)OP(=O)(O)O)[C@@H](O)[C@H]2O)c2nc(N)[nH]c(=O)c21 [m7GTP]
- susceptibility to hydrolysis by D9 [6]: very poor D9 substrates
- IC50 [2, 10]: 0.77 ± 0.06 µM
- D9 inhibition (literature) [3]: less potent D9 inhibitors

Compound: VACV D9 decapping enzyme (Vaccinia virus WR)
- Km [7]: 12.9 ± 2.2 µM
- kcat/Km [7]: 6300 ± 1200 M⁻¹ s⁻¹

Compound: C[n+]1cn([C@@H]2O[C@H](COP(=O)([S-])OP(=O)(O)OP(=O)(O)OP(=O)([S-])OC[C@H]3O[C@@H](n4c[n+](C)c5c(O)nc(N)nc54)[C@H](O)[C@@H]3O)[C@@H](O)[C@H]2O)c2nc(N)nc(O)c21 (stereo partly shown) [m7GpSpppSm7G D3]
- inhibition of yeast decapping enzyme SpDcp1/Dcp2 (literature) [8]: inhibitor
- IC50 [2, 9]: 3.6 ± 0.4 µM

Compound: Cn1c[n+]([C@@H]2O[C@H](COP(=O)(O)OP(=O)([O-])OP(=O)(O)OC[C@H]3O[C@@H](n4cnc5c(=O)[nH]c(N)nc54)[C@H](O)[C@@H]3O)[C@@H](O)[C@H]2O)c2nc(N)[nH]c(=O)c21 [m7GpppG]
- susceptibility to hydrolysis by D9 [6]: very poor D9 substrates
- IC50 ([2]; LOPAC hits and reference compounds (Table 2), 3 μM probe 1b, 5 nM D9, 30 °C, mean ± SEM of three experiments, read-out: IC50, inhibitors identified by HTS screening): 15 ± 2 µM
- IC50 [2, 10]: 11.3 ± 1.9 µM
- D9 inhibition (literature) [3]: less potent D9 inhibitors

Compound: m7Gppp-SCH2-triazole-G
- IC50 [2, 10]: 24.9 ± 4.8 µM

Compound: C[n+]1cn(C2OC(COP(=O)(O)OP(=O)([O-])C(Cl)(Cl)P(=O)(O)OP(=O)(O)OCC3OC(n4cnc5c(=O)[nH]c(N)nc54)C(O)C3O)C(O)C2O)c2nc(N)nc(O)c21 (stereo not shown) [m7GppCCl2ppG]
- IC50 [2, 10]: 41.4 ± 6.6 µM

Compound: Cc1cc(C)n2c1C=C1C=CC(CNC(=O)CSP(=O)([O-])OP(=O)(O)OP(=O)(O)OC[C@H]3O[C@@H](n4c[n+](C)c5c(=O)[nH]c(N)nc54)[C@H](O)[C@@H]3O)=[N+]1[B-]2(F)F [Compound 1a, m^7GTPγS-BODIPY-FL]
- time to complete hydrolysis by D9 [4]: ~ 40 min

Compound: CO[C@@H]1[C@H](OP(=O)(O)OC[C@H]2O[C@@H](n3cnc4c(=O)[nH]c(N)nc43)[C@H](O)[C@@H]2O)[C@@H](COP(=O)(O)OP(=O)(O)OP(=O)([O-])OC[C@H]2O[C@@H]([n+]3cn(C)c4c(=O)[nH]c(N)nc43)[C@H](O)[C@@H]2O)O[C@H]1n1cnc2c(=O)[nH]c(N)nc21 [m7GpppGmpG]
- IC50 [2, 10]: 12 ± 2.4 µM
